Results from US8791264B2 (Purdue Pharma L.P., priority 2006, dated 2014).

Experiments:
[1] = molecular target: T1, N-type calcium channel (NTCC) (Homo sapiens, UniProt Q00975); assay: FLIPR calcium mobilization assay for N-type calcium channel; type: cell-based; settings: calcium mobilization in vitro assay; differentiated IMR32 cells
T1 construct: host or cells: IMR32 cells differentiated with dibutyryl cAMP and bromodeoxyuridine
How it was run: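 Differentiated IMR32 cells (8 days, dibutyryl cAMP and BrdU) loaded with 3 μM Fluo-4 during 90 mM KCl pre-stimulation, with compound at about 846 pM to 17 μM plus 5 μM nitrendipine. After washes in compound, FLIPR read basal fluorescence 315 s, then 45 s after KCl addition (final 90 mM).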

[2] = molecular target: T2, recombinant rat L-type calcium channel (LTCC) subunits (α1c, α2δ, and β1) (Rattus norvegicus, UniProt P22002); assay: FLIPR calcium mobilization assay for L-type calcium channel; type: cell-based; settings: calcium mobilization in vitro assay; HEK293 cells expressing rat LTCC
T2 construct: expressed in transfected cells
How it was run: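 HEK293 cells stably expressing rat LTCC (α1c, α2δ, β1), Fluo-4 loaded in pH 7.4 buffer with 5 mM CaCl2. Compound (about 846 pM to 17 μM final) applied 5 minutes before depolarization with 90 mM KCl final; FLIPR fluorescence recorded throughout.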

T1 sequence (Q00975 whole entry): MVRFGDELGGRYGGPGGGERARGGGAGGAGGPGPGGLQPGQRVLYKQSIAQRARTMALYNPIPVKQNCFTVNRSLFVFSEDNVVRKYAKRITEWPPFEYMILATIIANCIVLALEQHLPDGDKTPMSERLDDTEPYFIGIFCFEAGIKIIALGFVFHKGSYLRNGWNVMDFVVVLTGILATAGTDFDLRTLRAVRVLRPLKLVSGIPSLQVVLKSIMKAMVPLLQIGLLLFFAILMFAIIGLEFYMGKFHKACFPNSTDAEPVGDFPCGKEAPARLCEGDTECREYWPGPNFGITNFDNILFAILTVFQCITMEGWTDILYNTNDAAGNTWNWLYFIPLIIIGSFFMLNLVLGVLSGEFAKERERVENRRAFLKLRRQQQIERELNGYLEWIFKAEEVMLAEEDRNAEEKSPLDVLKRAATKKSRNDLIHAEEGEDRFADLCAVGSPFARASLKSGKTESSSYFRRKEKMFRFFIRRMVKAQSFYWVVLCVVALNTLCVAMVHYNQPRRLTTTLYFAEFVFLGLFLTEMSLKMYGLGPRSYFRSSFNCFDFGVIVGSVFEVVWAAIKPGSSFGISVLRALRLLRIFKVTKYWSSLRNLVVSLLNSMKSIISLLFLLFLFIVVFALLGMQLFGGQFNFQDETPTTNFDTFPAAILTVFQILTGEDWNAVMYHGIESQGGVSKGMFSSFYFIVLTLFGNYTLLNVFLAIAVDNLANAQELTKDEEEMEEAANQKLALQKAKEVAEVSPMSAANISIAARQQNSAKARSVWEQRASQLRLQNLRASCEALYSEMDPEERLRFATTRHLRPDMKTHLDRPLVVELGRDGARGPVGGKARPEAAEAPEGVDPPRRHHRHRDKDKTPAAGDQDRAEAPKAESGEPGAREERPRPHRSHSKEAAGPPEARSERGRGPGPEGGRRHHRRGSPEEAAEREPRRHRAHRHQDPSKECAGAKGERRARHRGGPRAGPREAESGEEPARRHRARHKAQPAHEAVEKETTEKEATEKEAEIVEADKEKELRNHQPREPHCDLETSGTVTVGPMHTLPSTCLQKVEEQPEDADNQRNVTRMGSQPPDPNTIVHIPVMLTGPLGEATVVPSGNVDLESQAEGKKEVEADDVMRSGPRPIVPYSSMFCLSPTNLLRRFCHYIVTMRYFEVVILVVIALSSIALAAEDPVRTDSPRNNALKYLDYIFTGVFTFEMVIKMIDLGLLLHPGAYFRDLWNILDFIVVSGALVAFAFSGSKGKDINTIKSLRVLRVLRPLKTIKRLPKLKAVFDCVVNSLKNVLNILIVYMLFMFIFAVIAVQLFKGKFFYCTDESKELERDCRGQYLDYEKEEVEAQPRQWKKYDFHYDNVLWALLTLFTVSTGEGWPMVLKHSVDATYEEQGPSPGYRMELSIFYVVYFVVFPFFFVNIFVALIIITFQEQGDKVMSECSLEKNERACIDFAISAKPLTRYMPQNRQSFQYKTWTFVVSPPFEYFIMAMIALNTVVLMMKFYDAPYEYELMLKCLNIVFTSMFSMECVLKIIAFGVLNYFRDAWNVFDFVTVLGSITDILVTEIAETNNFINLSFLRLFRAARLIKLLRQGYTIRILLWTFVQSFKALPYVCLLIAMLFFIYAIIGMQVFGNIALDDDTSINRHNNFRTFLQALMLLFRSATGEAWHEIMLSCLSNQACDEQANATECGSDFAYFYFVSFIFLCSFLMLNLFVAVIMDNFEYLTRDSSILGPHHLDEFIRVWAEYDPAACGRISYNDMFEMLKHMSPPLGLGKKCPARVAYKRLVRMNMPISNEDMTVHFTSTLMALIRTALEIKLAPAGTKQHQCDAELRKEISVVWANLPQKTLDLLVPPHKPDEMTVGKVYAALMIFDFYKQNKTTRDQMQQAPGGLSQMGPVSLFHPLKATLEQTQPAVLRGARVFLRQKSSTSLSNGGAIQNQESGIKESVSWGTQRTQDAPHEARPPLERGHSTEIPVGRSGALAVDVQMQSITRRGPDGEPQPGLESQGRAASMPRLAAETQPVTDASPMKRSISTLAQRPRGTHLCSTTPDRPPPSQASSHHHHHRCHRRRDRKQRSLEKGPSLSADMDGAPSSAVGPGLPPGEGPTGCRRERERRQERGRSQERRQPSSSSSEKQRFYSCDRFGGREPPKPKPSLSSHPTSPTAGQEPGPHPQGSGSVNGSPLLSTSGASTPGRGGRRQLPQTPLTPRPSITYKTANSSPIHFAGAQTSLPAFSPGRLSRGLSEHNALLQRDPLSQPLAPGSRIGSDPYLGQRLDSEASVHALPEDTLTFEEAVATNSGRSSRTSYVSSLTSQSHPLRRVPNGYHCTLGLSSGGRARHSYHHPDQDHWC
T1 sequence (P54289 25-956 partner limits assumed): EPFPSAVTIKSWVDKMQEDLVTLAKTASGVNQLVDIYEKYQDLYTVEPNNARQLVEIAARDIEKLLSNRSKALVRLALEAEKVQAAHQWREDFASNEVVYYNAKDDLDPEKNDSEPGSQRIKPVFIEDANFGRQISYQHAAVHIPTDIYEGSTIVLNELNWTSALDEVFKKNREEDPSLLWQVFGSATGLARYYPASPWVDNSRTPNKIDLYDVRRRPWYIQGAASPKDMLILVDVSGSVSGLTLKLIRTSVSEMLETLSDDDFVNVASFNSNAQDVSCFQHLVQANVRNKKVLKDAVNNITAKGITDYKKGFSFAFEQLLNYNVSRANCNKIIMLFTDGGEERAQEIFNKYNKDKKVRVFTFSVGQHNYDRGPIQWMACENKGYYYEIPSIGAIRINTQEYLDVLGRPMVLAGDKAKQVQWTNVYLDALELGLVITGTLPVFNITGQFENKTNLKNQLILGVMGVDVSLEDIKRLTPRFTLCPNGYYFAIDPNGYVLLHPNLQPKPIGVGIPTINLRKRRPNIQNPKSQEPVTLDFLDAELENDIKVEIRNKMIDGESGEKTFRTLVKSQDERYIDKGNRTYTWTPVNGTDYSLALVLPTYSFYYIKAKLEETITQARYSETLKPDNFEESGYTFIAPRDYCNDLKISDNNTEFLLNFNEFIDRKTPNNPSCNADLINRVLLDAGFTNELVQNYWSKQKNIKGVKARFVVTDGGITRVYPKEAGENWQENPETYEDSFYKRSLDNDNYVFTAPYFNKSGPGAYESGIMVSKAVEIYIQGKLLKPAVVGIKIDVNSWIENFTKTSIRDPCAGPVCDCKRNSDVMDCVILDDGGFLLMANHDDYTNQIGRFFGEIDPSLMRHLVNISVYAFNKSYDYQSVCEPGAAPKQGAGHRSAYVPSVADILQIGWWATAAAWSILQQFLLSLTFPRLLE
T1 sequence (P54289 957-1103 partner limits assumed): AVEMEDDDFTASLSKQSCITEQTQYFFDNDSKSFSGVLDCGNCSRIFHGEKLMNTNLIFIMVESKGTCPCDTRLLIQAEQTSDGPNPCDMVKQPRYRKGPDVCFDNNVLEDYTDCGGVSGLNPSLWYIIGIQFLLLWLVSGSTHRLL
T1 sequence (P54284 whole entry partner): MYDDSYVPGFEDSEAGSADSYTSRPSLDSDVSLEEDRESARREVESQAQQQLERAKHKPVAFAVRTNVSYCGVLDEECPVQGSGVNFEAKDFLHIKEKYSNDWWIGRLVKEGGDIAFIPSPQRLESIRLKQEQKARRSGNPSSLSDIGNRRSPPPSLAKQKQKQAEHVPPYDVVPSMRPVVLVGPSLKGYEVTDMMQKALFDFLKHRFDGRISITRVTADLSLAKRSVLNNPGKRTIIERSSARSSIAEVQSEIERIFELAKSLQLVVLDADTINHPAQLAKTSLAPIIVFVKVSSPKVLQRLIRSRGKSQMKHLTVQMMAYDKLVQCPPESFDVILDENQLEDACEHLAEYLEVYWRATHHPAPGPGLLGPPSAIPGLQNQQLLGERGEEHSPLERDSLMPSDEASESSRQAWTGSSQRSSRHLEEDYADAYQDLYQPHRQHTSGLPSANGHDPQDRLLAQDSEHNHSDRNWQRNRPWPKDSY

In the case of `CC(C)N(C1CCN(CC(=O)Nc2nc3ccc(F)cc3s2)CC1)S(=O)(=O)c1cccc(C(F)(F)F)c1` [Compound 42i, N-(6-Fluorobenzothiazol-2-yl)-2-{4-[isopropyl-(3-trifluoromethylbenzenesulfonyl)amino]-piperidin-1-yl}-acetamide], the IC50 [1] is reported as 670 nM and the IC50 [2] is reported as > 20000 nM.

In the case of `CC(C)N(C1CCN(C(=O)CNCC2CCCCC2)CC1)S(=O)(=O)c1cccc(C(F)(F)F)c1` [Compound 102, N-{1-[2-(Cyclohexylmethylamino)acetyl]-piperidin-4-yl}-N-isopropyl-3-trifluoromethylbenzenesulfonamide], the IC50 [1] is reported as 220 nM and the IC50 [2] is reported as > 20000 nM.

In the case of `CC(C)N(C1CCN(CC(=O)Nc2ccc(F)cc2)CC1)S(=O)(=O)c1cccc(C(F)(F)F)c1` [Compound 44, N-(4-Fluorophenyl)-2-{4-[isopropyl-(3-trifluoromethylbenzenesulfonyl)amino]-piperidin-1-yl}-acetamide], the IC50 [1] is reported as 280 nM and the IC50 [2] is reported as 2680 nM.

In the case of `CC(C)(C)c1ccc(NC(=O)CN2CCC(N(C3CC3)S(=O)(=O)c3cccc(C(F)(F)F)c3)CC2)cc1` [Compound 56], the IC50 [1] is reported as 760 nM and the IC50 [2] is reported as > 20000 nM.

Compound `CC(C)N(C1CCN(C(=O)C(N)Cc2ccc(OCc3ccccc3)cc2)CC1)S(=O)(=O)c1cccc(C(F)(F)F)c1` (centres unmarked) [N-{1-[2-amino-3-(4-benzyloxy-phenyl)-propionyl]-piperidin-4-yl}-N-isopropyl-3-trifluoromethyl-benzenesulfonamide] has an IC50 [1] of 710 nM and an IC50 [2] of 2380 nM.

`Cc1cccc(NC(=O)CN2CCC(N(C(C)C)S(=O)(=O)c3cccc(C(F)(F)F)c3)CC2)c1` [Compound 42d, 2-{4-[Isopropyl-(3-trifluoromethylbenzenesulfonyl)amino]-piperidin-1-yl}-N-m-tolyl-acetamide] was tested, and the IC50 [1] was 450 nM and the IC50 [2] was > 20000 nM.

`O=C(CN1CCC(N(C2CC2)S(=O)(=O)c2cccc(C(F)(F)F)c2)CC1)Nc1cc(F)cc(C(F)(F)F)c1` [Compound 73, 2-{4-[Cyclopropyl-(3-trifluoromethylbenzenesulfonyl)amino]-piperidin-1-yl}-N-(3-fluoro-5-trifluoromethylphenyl)-acetamide] was tested, and the IC50 [1] was 610 nM and the IC50 [2] was > 20000 nM.

In the case of `CCC(C(=O)N1CCC(N(C(C)C)S(=O)(=O)c2cccc(C(F)(F)F)c2)CC1)N(C)Cc1ccccc1` (centres unmarked) [Compound 96, N-{1-[2-(Benzyl-methyl-amino)butyryl]-piperidin-4-yl}-N-isopropyl-3-trifluoromethylbenzenesulfonamide], the IC50 [1] is reported as 820 nM and the IC50 [2] is reported as 4410 nM.

`COc1cccc(NCCC(=O)N2CCC(N(C(C)C)S(=O)(=O)c3cccc(C(F)(F)F)c3)CC2)c1` [N-isopropyl-N-{1-[3-(3-methoxy-phenylamino)-propionyl]-piperidin-4-yl}-3-trifluoromethyl-benzenesulfonamide] was tested, and the IC50 [1] was 420 nM and the IC50 [2] was 10000 to 20000 nM.

In the case of `COc1ccccc1NC(=O)CCN1CCC(N(C(C)C)S(=O)(=O)c2cccc(C(F)(F)F)c2)CC1` [Compound 107b, 3-{4-[Isopropyl-(3-trifluoromethylbenzenesulfonyl)amino]-piperidin-1-yl}-N-(2-methoxyphenyl)-propionamide], the IC50 [1] is reported as 670 nM and the IC50 [2] is reported as > 20000 nM.

`CC(C)N(C1CCN(C(=O)[C@H](Cc2ccccc2)NCC2CCCCC2)CC1)S(=O)(=O)c1cccc(C(F)(F)F)c1` [Compound 88d, (S)—N-{1-[2-(Cyclohexylmethyl-amino)-3-phenyl-propionyl]-piperidin-4-yl}-N-isopropyl-3-trifluoromethyl-benzenesulfonamide] showed an IC50 [1] of 100 nM and an IC50 [2] of 3580 nM.

With `O=C(CN1CCC(N(C2CC2)S(=O)(=O)c2cccc(C(F)(F)F)c2)CC1)Nc1cc(C(F)(F)F)cc(C(F)(F)F)c1` [Compound 63, N-(3,5-Bis-trifluoromethylphenyl)-2-{4-[cyclopropyl-(3-trifluoromethylbenzenesulfonyl)amino]-piperidin-1-yl}-acetamide] the IC50 [1] was 660 nM and the IC50 [2] was > 20000 nM.

In the case of `CCOC(=O)c1ccc(NC(=O)CN2CCC(N(C3CC3)S(=O)(=O)c3cccc(C(F)(F)F)c3)CC2)cc1` [Compound 54, 4-(2-{4-[Cyclopropyl-(3-trifluoromethylbenzenesulfonyl)amino]-piperidin-1-yl}-acetylamino)benzoic acid ethyl ester], the IC50 [1] is reported as 540 nM and the IC50 [2] is reported as > 20000 nM.

Compound `COc1ccccc1NCCC(=O)N1CCC(N(C(C)C)S(=O)(=O)c2cccc(C(F)(F)F)c2)CC1` [N-isopropyl-N-{1-[3-(2-methoxy-phenylamino)-propionyl]-piperidin-4-yl}-3-trifluoromethyl-benzenesulfonamide] has an IC50 [1] of 370 nM and an IC50 [2] of 3800 nM.

`CCOc1ccccc1NC(=O)CN1CCC(N(C(C)C)S(=O)(=O)c2cccc(C(F)(F)F)c2)CC1` [Compound 42c, N-(2-Ethoxyphenyl)-2-{4-[isopropyl-(3-trifluoromethylbenzenesulfonyl)amino]-piperidin-1-yl}-acetamide] gave an IC50 [1] of 110 nM and an IC50 [2] of 9540 nM.

In the case of `CC(C)C[C@H](NC1CCCC1)C(=O)N1CCC(N(C(C)C)S(=O)(=O)c2cccc(C(F)(F)F)c2)CC1` [Compound 88c, (S)—N-[1-(2-Cyclopentylamino-4-methyl-pentanoyl)-piperidin-4-yl]-N-isopropyl-3-trifluoromethyl-benzenesulfonamide], the IC50 [1] is reported as 620 nM and the IC50 [2] is reported as 7080 nM.

For `CC(C)N(C1CCN(C(=O)CCN(C)Cc2ccccc2)CC1)S(=O)(=O)c1cccc(C(F)(F)F)c1` [N-{1-[3-(benzyl-methyl-amino)-propionyl]-piperidin-4-yl}-N-isopropyl-3-trifluoromethyl-benzenesulfonamide], the IC50 [1] was 420 nM and the IC50 [2] was 7480 nM.

Compound `CC(C)N(C1CCN(C(=O)[C@H](Cc2ccccc2)NCC(N)=O)CC1)S(=O)(=O)c1cccc(C(F)(F)F)c1` [Compound 109, (S)-2-(1-Benzyl-2-{4-[isopropyl(3-trifluoromethylbenzene-sulfonyl)amino]-piperidin-1-yl}-2-oxo-ethylamino)-acetamide] has an IC50 [1] of 790 nM and an IC50 [2] of 7430 nM.

In the case of `CN(C1CCN(CC(=O)Nc2ccc(F)cc2)CC1)S(=O)(=O)c1cccc(C(F)(F)F)c1` [Compound 51, N-(4-Fluorophenyl)-2-{4-[methyl-(3-trifluoromethylbenzenesulfonyl)-amino]-piperidin-1-yl}-acetamide], the IC50 [1] is reported as 700 nM and the IC50 [2] is reported as > 20000 nM.

Work on `CC(C)N(C1CCN(C(=O)CNCc2ccccc2)CC1)S(=O)(=O)c1cccc(C(F)(F)F)c1` [Compound 93, N-[1-(2-Benzylaminoacetyl)-piperidin-4-yl]-N-isopropyl-3-trifluoromethylbenzenesulfonamide] yielded an IC50 [1] of 560 nM and an IC50 [2] of 10000 to 20000 nM.

With `O=C(CN1CCC(N(C2CC2)S(=O)(=O)c2cccc(C(F)(F)F)c2)CC1)Nc1cc(F)cc(F)c1` [Compound 74, 2-{4-[Cyclopropyl-(3-trifluoromethylbenzenesulfonyl)amino]-piperidin-1-yl}-N-(3,5-difluorophenyl)-acetamide] the IC50 [1] was 370 nM and the IC50 [2] was 6600 nM.

With `COc1cccc(NCCC(=O)N2CCC(N(C(C)C)S(=O)(=O)c3cccc(C(F)(F)F)c3)CC2)c1OC` [N-{1-[3-(2,3-dimethoxy-phenylamino)-propionyl]-piperidin-4-yl}-N-isopropyl-3-trifluoromethyl-benzenesulfonamide] the IC50 [1] was 310 nM and the IC50 [2] was 10000 to 20000 nM.
